# Assay results taken from PubChem BioAssay (NCI).
#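 Cells were grown in 96-well plates and exposed to each compound for 48 hours at five concentrations; endpoints were interpolated linearly between bracketing concentrations, or set to the highest concentration if not reached. GI50 = concentration required for 50% inhibition of growth. At the TGI there is no net growth.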
# Legend:
# Assay in all cases: growth of human tumour cells (NCI), 48 h
# LOX IMVI melanoma = tested on: LOX IMVI melanoma
# OVCAR-3 ovarian = tested on: OVCAR-3 ovarian
# CCRF-CEM leukemia = tested on: CCRF-CEM leukemia
# SW-620 colon = tested on: SW-620 colon
# SF-539 CNS = tested on: SF-539 CNS
# UACC-62 melanoma = tested on: UACC-62 melanoma
# M14 melanoma = tested on: M14 melanoma
# HCC-2998 colon = tested on: HCC-2998 colon
# UACC-257 melanoma = tested on: UACC-257 melanoma
# RXF 393 renal = tested on: RXF 393 renal
# KM12 colon = tested on: KM12 colon
# A498 renal = tested on: A498 renal
# HOP-62 NSCLC = tested on: HOP-62 NSCLC
# MDA-MB-435 = tested on: MDA-MB-435
# MDA-N = tested on: MDA-N
# HCT-15 colon = tested on: HCT-15 colon
# NCI/ADR-RES ovarian = tested on: NCI/ADR-RES ovarian
# HOP-92 NSCLC = tested on: HOP-92 NSCLC
# MOLT-4 leukemia = tested on: MOLT-4 leukemia
# OVCAR-4 ovarian = tested on: OVCAR-4 ovarian
# UO-31 renal = tested on: UO-31 renal
# SN12C renal = tested on: SN12C renal
# SK-OV-3 ovarian = tested on: SK-OV-3 ovarian
# SK-MEL-28 melanoma = tested on: SK-MEL-28 melanoma
# HT29 colon = tested on: HT29 colon
# 786-0 renal = tested on: 786-0 renal
# HL-60(TB) leukemia = tested on: HL-60(TB) leukemia
# SF-268 CNS = tested on: SF-268 CNS
# MDA-MB-231 breast = tested on: MDA-MB-231 breast
# NCI-H23 lung = tested on: NCI-H23 lung
# MCF7 breast = tested on: MCF7 breast
# SK-MEL-5 melanoma = tested on: SK-MEL-5 melanoma
# U251 CNS = tested on: U251 CNS
# SK-MEL-2 melanoma = tested on: SK-MEL-2 melanoma
# RPMI-8226 leukemia = tested on: RPMI-8226 leukemia
# A549 NSCLC = tested on: A549 NSCLC
# BT-549 breast = tested on: BT-549 breast
# COLO 205 colon = tested on: COLO 205 colon
# MALME-3M melanoma = tested on: MALME-3M melanoma
# HCT-116 colon = tested on: HCT-116 colon
# NCI-H460 lung = tested on: NCI-H460 lung
# SR leukemia = tested on: SR leukemia
# SNB-19 CNS = tested on: SNB-19 CNS
# DU-145 prostate = tested on: DU-145 prostate
# IGROV1 ovarian = tested on: IGROV1 ovarian
# SNB-75 CNS = tested on: SNB-75 CNS
# PC-3 prostate = tested on: PC-3 prostate
# OVCAR-5 ovarian = tested on: OVCAR-5 ovarian
# TK-10 renal = tested on: TK-10 renal
# HS 578T breast = tested on: HS 578T breast
# EKVX NSCLC = tested on: EKVX NSCLC
# SF-295 CNS = tested on: SF-295 CNS
# ACHN renal = tested on: ACHN renal
# T-47D breast = tested on: T-47D breast
# NCI-H522 lung = tested on: NCI-H522 lung
# K-562 leukemia = tested on: K-562 leukemia
# NCI-H226 lung = tested on: NCI-H226 lung
# OVCAR-8 ovarian = tested on: OVCAR-8 ovarian
# CAKI-1 renal = tested on: CAKI-1 renal
structure (smiles),measurement,setting,value
CC[CH2][Pb]([CH2]CC)([CH2]CC)[NH]S(=O)(=O)c1ccc(C)cc1,GI50,LOX IMVI melanoma,25 nM
same,TGI,LOX IMVI melanoma,65.5 nM
same,GI50,OVCAR-3 ovarian,24 nM
same,TGI,OVCAR-3 ovarian,62.5 nM
same,GI50,CCRF-CEM leukemia,37.1 nM
same,TGI,CCRF-CEM leukemia,230 nM
same,GI50,SW-620 colon,36.4 nM
same,TGI,SW-620 colon,345 nM
same,GI50,SF-539 CNS,65.9 nM
same,TGI,SF-539 CNS,155 nM
same,GI50,UACC-62 melanoma,27.2 nM
same,TGI,UACC-62 melanoma,99.5 nM
same,GI50,M14 melanoma,61.6 nM
same,TGI,M14 melanoma,219 nM
same,GI50,HCC-2998 colon,72.7 nM
same,TGI,HCC-2998 colon,200 nM
same,GI50,UACC-257 melanoma,77.3 nM
same,TGI,UACC-257 melanoma,245 nM
same,GI50,RXF 393 renal,21.8 nM
same,TGI,RXF 393 renal,86.9 nM
same,GI50,KM12 colon,147 nM
same,TGI,KM12 colon,312 nM
same,GI50,A498 renal,21.5 nM
same,TGI,A498 renal,58 nM
same,GI50,HOP-62 NSCLC,90.9 nM
same,TGI,HOP-62 NSCLC,422 nM
same,GI50,MDA-MB-435,19.4 nM
same,TGI,MDA-MB-435,76.6 nM
same,GI50,MDA-N,29.4 nM
same,TGI,MDA-N,140 nM
same,GI50,HCT-15 colon,125 nM
same,TGI,HCT-15 colon,312 nM
same,GI50,NCI/ADR-RES ovarian,217 nM
same,TGI,NCI/ADR-RES ovarian,641 nM
same,GI50,HOP-92 NSCLC,36 nM
same,TGI,HOP-92 NSCLC,161 nM
same,GI50,MOLT-4 leukemia,74.6 nM
same,TGI,MOLT-4 leukemia,4510 nM
same,GI50,OVCAR-4 ovarian,68.2 nM
same,TGI,OVCAR-4 ovarian,307 nM
same,GI50,UO-31 renal,143 nM
same,TGI,UO-31 renal,274 nM
same,GI50,SN12C renal,68.1 nM
same,TGI,SN12C renal,172 nM
same,GI50,SK-OV-3 ovarian,78.8 nM
same,TGI,SK-OV-3 ovarian,276 nM
same,GI50,SK-MEL-28 melanoma,76.4 nM
same,TGI,SK-MEL-28 melanoma,241 nM
same,GI50,HT29 colon,54.6 nM
same,TGI,HT29 colon,112 nM
same,GI50,786-0 renal,57.4 nM
same,TGI,786-0 renal,134 nM
same,GI50,HL-60(TB) leukemia,64.3 nM
same,TGI,HL-60(TB) leukemia,272 nM
same,GI50,SF-268 CNS,35 nM
same,TGI,SF-268 CNS,117 nM
same,GI50,MDA-MB-231 breast,66.1 nM
same,TGI,MDA-MB-231 breast,270 nM
same,GI50,NCI-H23 lung,17.8 nM
same,TGI,NCI-H23 lung,37.5 nM
same,GI50,MCF7 breast,65.1 nM
same,TGI,MCF7 breast,418 nM
same,GI50,SK-MEL-5 melanoma,55.5 nM
same,TGI,SK-MEL-5 melanoma,142 nM
same,GI50,U251 CNS,89 nM
same,TGI,U251 CNS,292 nM
same,GI50,SK-MEL-2 melanoma,17.6 nM
same,TGI,SK-MEL-2 melanoma,43.6 nM
same,GI50,RPMI-8226 leukemia,25.9 nM
same,TGI,RPMI-8226 leukemia,131 nM
same,GI50,A549 NSCLC,86.8 nM
same,TGI,A549 NSCLC,678 nM
same,GI50,BT-549 breast,20.9 nM
same,TGI,BT-549 breast,49.9 nM
same,GI50,COLO 205 colon,23.6 nM
same,TGI,COLO 205 colon,52.8 nM
same,GI50,MALME-3M melanoma,43.1 nM
same,TGI,MALME-3M melanoma,174 nM
same,GI50,HCT-116 colon,45.2 nM
same,TGI,HCT-116 colon,179 nM
same,GI50,NCI-H460 lung,137 nM
same,TGI,NCI-H460 lung,277 nM
same,GI50,SR leukemia,52.2 nM
same,TGI,SR leukemia,279 nM
same,GI50,SNB-19 CNS,34.9 nM
same,TGI,SNB-19 CNS,143 nM
same,GI50,DU-145 prostate,85.3 nM
same,TGI,DU-145 prostate,444 nM
same,GI50,IGROV1 ovarian,72.3 nM
same,TGI,IGROV1 ovarian,190 nM
same,GI50,SNB-75 CNS,42.1 nM
same,TGI,SNB-75 CNS,132 nM
same,GI50,PC-3 prostate,70.1 nM
same,TGI,PC-3 prostate,196 nM
same,GI50,OVCAR-5 ovarian,66.7 nM
same,TGI,OVCAR-5 ovarian,242 nM
same,GI50,TK-10 renal,97.1 nM
same,TGI,TK-10 renal,360 nM
same,GI50,HS 578T breast,63.8 nM
same,TGI,HS 578T breast,354 nM
same,GI50,EKVX NSCLC,73.9 nM
same,TGI,EKVX NSCLC,317 nM
same,GI50,SF-295 CNS,89.8 nM
same,TGI,SF-295 CNS,203 nM
same,GI50,ACHN renal,66.8 nM
same,TGI,ACHN renal,200 nM
COc1ccc(C2NC3=C(CCCC3)C3(C#N)C(=O)N=C(N)C23C#N)cc1 (stereo unspecified),TGI,LOX IMVI melanoma,> 100000 nM
same,TGI,CCRF-CEM leukemia,91900 nM
same,TGI,SW-620 colon,> 100000 nM
same,TGI,UACC-62 melanoma,> 100000 nM
same,TGI,M14 melanoma,> 100000 nM
same,TGI,HCC-2998 colon,> 100000 nM
same,TGI,UACC-257 melanoma,> 100000 nM
same,TGI,RXF 393 renal,> 100000 nM
same,TGI,KM12 colon,> 100000 nM
same,TGI,A498 renal,> 100000 nM
same,TGI,HOP-62 NSCLC,> 100000 nM
same,TGI,MDA-MB-435,> 100000 nM
same,TGI,MDA-N,> 100000 nM
same,TGI,HCT-15 colon,> 100000 nM
same,TGI,NCI/ADR-RES ovarian,> 100000 nM
same,TGI,HOP-92 NSCLC,> 100000 nM
same,TGI,MOLT-4 leukemia,> 100000 nM
same,TGI,T-47D breast,> 100000 nM
same,TGI,OVCAR-4 ovarian,> 100000 nM
same,TGI,UO-31 renal,> 100000 nM
same,TGI,NCI-H522 lung,> 100000 nM
same,TGI,SN12C renal,> 100000 nM
same,TGI,SK-OV-3 ovarian,> 100000 nM
same,TGI,SK-MEL-28 melanoma,> 100000 nM
same,TGI,HT29 colon,> 100000 nM
same,TGI,786-0 renal,> 100000 nM
same,TGI,HL-60(TB) leukemia,> 100000 nM
same,TGI,SF-268 CNS,> 100000 nM
same,TGI,MDA-MB-231 breast,> 100000 nM
same,TGI,K-562 leukemia,> 100000 nM
same,TGI,NCI-H226 lung,> 100000 nM
same,TGI,NCI-H23 lung,> 100000 nM
same,TGI,MCF7 breast,> 100000 nM
same,TGI,SK-MEL-5 melanoma,> 100000 nM
same,TGI,U251 CNS,> 100000 nM
same,TGI,SK-MEL-2 melanoma,> 100000 nM
same,TGI,RPMI-8226 leukemia,> 100000 nM
same,TGI,A549 NSCLC,> 100000 nM
same,TGI,BT-549 breast,> 100000 nM
same,TGI,COLO 205 colon,> 100000 nM
same,TGI,MALME-3M melanoma,> 100000 nM
same,TGI,HCT-116 colon,> 100000 nM
same,TGI,NCI-H460 lung,> 100000 nM
same,TGI,SNB-19 CNS,> 100000 nM
same,TGI,DU-145 prostate,> 100000 nM
same,TGI,OVCAR-8 ovarian,> 100000 nM
same,TGI,IGROV1 ovarian,> 100000 nM
same,TGI,PC-3 prostate,> 100000 nM
same,TGI,OVCAR-5 ovarian,> 100000 nM
same,TGI,TK-10 renal,> 100000 nM
same,TGI,CAKI-1 renal,> 100000 nM
same,TGI,HS 578T breast,> 100000 nM
same,TGI,EKVX NSCLC,> 100000 nM
same,TGI,SF-295 CNS,> 100000 nM
same,TGI,ACHN renal,> 100000 nM
